Measurements taken from patent US20250332290A1, “PSMA-TARGETING LIGANDS FOR MULTIMODAL APPLICATIONS” (STICHTING RADBOUD UNIVERSITAIR MEDISCH CENTRUM, priority 2021, published 2025).
pIC50: −log10 of the molar value. “And” between values parts separate entries of the source, which are not always exact repeats. Equal values may be shown once.

How the values were obtained:
PSMA (LS174T-PSMA cells) [1] = target: T1, PSMA (LS174T-PSMA cells) (Homo sapiens, UniProt Q04609); test: Binding and internalization assay with 111In-labelled ligands on PSMA-expressing LS174T-PSMA cells; format: cell-based; conditions: for Average binding %, Internalized / Average binding %, Membrane bound / Average binding %, Total: 111In-labelled, 50,000 cpm, 2 h at 37° C., LS174T-PSMA cells
T1 construct: expressed in transfected cells
Method: Each labelled ligand (0.01 mL) was dissolved in PBS (0.5 mL) and diluted 1:10:100 in three tubes, resulting in tube 1 1×, tube 2 10× and tube 3 100× dilution. The tubes were measured by a gamma-counter to determine the counts per minute of known ligand concentrations. The calculated amounts of ligand were transferred from tubes 2 into new tubes and filled with binding buffer to total volume 0.5 mL. These solutions are needed for the binding and internalization assay.
Two days before the assay, four six-well plates were plated with 0.3-1.0 million PSMA-expressing LS174T-PSMA cells per well in culture medium (2 mL). On the day of the assay, the cells were washed with PBS. Binding buffer (0.5% BSA in RMPI 1640, 2 mL) and 50,000 counts per minute of radiolabelled PSMA-ligand (0.005 mL) were added from tubes prepared according to calculation with standards. Each ligand was examined in triplicate. The cells were incubated at 37° C. for 2 hours and after this the medium was removed. The cells were washed with ice-cold PBS and cooled to 0° C. After incubating the cells with acid buffer pH 2.6 (0.1M acetic acid, 0.15 M NaCl, 2 mL) for 10 minutes, the membrane-bound ligands were collected in tubes. The cells were washed with ice-cold PBS again and these fractions were collected as control. NaOH was added to the cells (0.1 M, 2 mL) for 10 minutes to lyse the cells and free the internalized ligands. The ^111In-radiocounts per minute of all fractions and standards were measured by a gamma-counter. From this, the ligand-PSMA binding percentages and internalization fraction were quantified.

[2] = Lipophilicity, LogD of radiolabeled ligands in PBS (pH 7.4) / n-octanol; format: physicochemical; conditions: radiolabeled ligand
Method: (§1) IC50: The 50% inhibitory concentration (IC50) of the ligands was determined using LS174T-PSMA cells in a competitive binding assay. The LS174T-PSMA cells were cultured to confluency in 6-wells plates, followed by incubation on ice for 2 h in 1 mL of binding buffer (RPMI/0.5% BSA) with 50,000 cpm of ^111In-labeled PSMA-617 and a series of increasing concentrations (0.01-300 nM) of unlabeled PSMA ligands. After incubation, cells were washed with 2 ml PBS and lysed with 1.5 ml 0.1 M NaOH. Cell lysis was collected from the plate and the cell-associated activity was measured in a gamma-counter and IC50 values were calculated using GraphPad Prism software version 5.03. Lipophilicity: LogD values of all radiolabeled ligands were determined by adding 300,000 cpm (0.6-1.5 pmol) to a mixture of 3 ml PBS (pH 7.4) and 3 ml n-octanol. Tubes were vortexed vigorously for 1 min and centrifuged for 5 min at 201×g. The concentration of radioactivity in a defined volume of each layer was measured in a well-type gamma-counter.

PSMA (LS174T-PSMA cells) [3] = target: T1, PSMA (LS174T-PSMA cells); test: Alternative internalization assay in LS174T-PSMA cells; format: cell-based; conditions: 2 h at 37° C.
Method: Alternative internalization assay: binding and internalization characteristics of all ligands were compared using LS174T-PSMA and wildtype LS174T cells, cultured to confluency in 6-wells plates. Cells were incubated with 50,000 counts per minute (cpm) ^111In- or ^99mTc-labeled PSMA ligand (0.1-0.25 pmol/well) in 1 ml binding buffer (RPMI/0.5% BSA) for 2 h at 37° C. Nonspecific binding was determined by co-incubation with 2-(phosphonomethyl) pentane-1,5-dioic acid (2-PMPA, 21.57 µM). Cells were washed with PBS and incubated with acid buffer (0.1 M acetic acid, 154 mM NaCl, pH 2.6) for 10 minutes at 0° C. to retrieve the membrane-bound fraction. After this, the membrane-bound fraction was collected, cells were washed, lysed with 1.5 ml 0.1 M NaOH and cell lysis (intracellular activity) was collected. Membrane-bound activity and intracellular activity fractions were measured in a gamma-counter (2480 WIZARD^2 Automatic Gamma Counter, PerkinElmer) (6,42).

PSMA (LS174T-PSMA cells) [4] = target: T1, PSMA (LS174T-PSMA cells); test: Competitive binding assay against 111In-labeled PSMA-617 using LS174T-PSMA cells; conditions: on ice 2 h, 111In-labeled PSMA-617 as competitor, unlabeled ligand 0.01-300 nM
Method: as §1

T1 sequence (Q04609 whole entry): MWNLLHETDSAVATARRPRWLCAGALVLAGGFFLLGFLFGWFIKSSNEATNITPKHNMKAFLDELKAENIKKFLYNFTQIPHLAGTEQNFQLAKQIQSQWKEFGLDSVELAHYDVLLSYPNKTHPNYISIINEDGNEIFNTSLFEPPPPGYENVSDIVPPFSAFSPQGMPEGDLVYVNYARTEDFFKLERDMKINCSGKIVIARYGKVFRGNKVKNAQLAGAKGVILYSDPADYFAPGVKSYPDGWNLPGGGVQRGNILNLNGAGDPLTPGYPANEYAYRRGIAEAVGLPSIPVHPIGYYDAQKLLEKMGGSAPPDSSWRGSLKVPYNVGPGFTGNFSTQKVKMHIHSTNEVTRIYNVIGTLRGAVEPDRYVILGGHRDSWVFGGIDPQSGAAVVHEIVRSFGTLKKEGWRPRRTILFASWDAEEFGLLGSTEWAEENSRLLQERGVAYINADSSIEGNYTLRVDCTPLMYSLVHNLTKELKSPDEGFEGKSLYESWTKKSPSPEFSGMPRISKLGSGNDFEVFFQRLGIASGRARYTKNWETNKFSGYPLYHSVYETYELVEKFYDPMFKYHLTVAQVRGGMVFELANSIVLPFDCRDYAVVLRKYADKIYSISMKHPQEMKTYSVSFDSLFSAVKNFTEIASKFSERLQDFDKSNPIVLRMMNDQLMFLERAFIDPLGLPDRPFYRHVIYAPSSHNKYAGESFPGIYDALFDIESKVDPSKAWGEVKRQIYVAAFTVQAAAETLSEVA

| Compound | LogD [2] | Internalization Ratio (%) (PSMA (LS174T-PSMA cells) [3]) | pIC50 (PSMA (LS174T-PSMA cells) [4]) | Average binding %, Internalized (PSMA (LS174T-PSMA cells) [1]) [%] | Average binding %, Membrane bound (PSMA (LS174T-PSMA cells) [1]) [%] | Average binding %, Total (PSMA (LS174T-PSMA cells) [1]) | total binding to PSMA expressing cells relative to PSMA-617 (PSMA (LS174T-PSMA cells) [1]; ratio of total binding percentages) [times] |
| --- | --- | --- | --- | --- | --- | --- | --- |
| O=C(O)CC[C@H](NC(=O)N[C@@H](CCCCNC(=O)[C@H](Cc1ccc2ccccc2c1)NC(=O)c1ccc(CNC(=O)[C@H](CCCCNC(=O)CN2CCN(CC(=O)O)CCN(CC(=O)O)CCN(CC(=O)O)CC2)NC(=O)[C@H](CCC(=O)O)NC(=O)c2ccccc2)cc1)C(=O)O)C(=O)O [Compound K9] | – | – | – | 9.06 | 9.87 | 18.9% and 18.93% | 2.6 |
| O=C(O)CC[C@H](NC(=O)N[C@@H](CCCCNC(=O)[C@H](Cc1ccc2ccccc2c1)NC(=O)[C@H]1CC[C@H](CNC(=O)CN2CCN(CC(=O)O)CCN(CC(=O)O)CCN(CC(=O)O)CC2)CC1)C(=O)O)C(=O)O [PSMA-617, reference compound] | −4.1 +/− 0.01 | 48.4 +/− 12.4% | 8.07 | 3.39 | 3.80 | 7.19% | – |

The next lines start with results.

| LogD [2] | Internalization Ratio (%) (PSMA (LS174T-PSMA cells) [3]) | pIC50 (PSMA (LS174T-PSMA cells) [4]) | Compound | Average binding %, Internalized (PSMA (LS174T-PSMA cells) [1]) [%] | Average binding %, Membrane bound (PSMA (LS174T-PSMA cells) [1]) [%] | Average binding %, Total (PSMA (LS174T-PSMA cells) [1]) | total binding to PSMA expressing cells relative to PSMA-617 (PSMA (LS174T-PSMA cells) [1]; ratio of total binding percentages) [times] |
| --- | --- | --- | --- | --- | --- | --- | --- |
| −4.4 +/− 0.01 | 74.1 +/− 20.3% | 6.51 | CC1(C)C(=CC=C2CCCC(C=CC3=[N+](CCCCCC(=O)NCCCCC(NC(=O)CN4CCN(CC(=O)O)CCN(CC(=O)O)CCN(CC(=O)O)CC4)C(=O)NCCCCC(NC(=O)C(CCC(=O)O)NC(=O)c4cccnc4)C(=O)NCc4ccc(C(=O)NC(Cc5ccc6ccccc6c5)C(=O)NCCCCC(NC(=O)NC(CCC(=O)O)C(=O)O)C(=O)O)cc4)c4ccc(S(=O)(=O)O)cc4C3(C)C)=C2Oc2ccc(S(=O)(=O)O)cc2)N(CCCCS(=O)(=O)O)c2ccc(S(=O)(=O)O)cc21 (stereo not shown) [Compound K11] | – | – | – | – |
| −3.5 +/− 0.01 | 61.0 +/− 12.8% | 6.32 | CC(=O)SCC(=O)NCC(=O)NCC(=O)NCC(=O)NC(CCCCNC(=O)CCCCC[N+]1=C(C=CC2=C(Oc3ccc(S(=O)(=O)O)cc3)C(=CC=C3N(CCCCS(=O)(=O)O)c4ccc(S(=O)(=O)O)cc4C3(C)C)CCC2)C(C)(C)c2cc(S(=O)(=O)O)ccc21)C(=O)NCCCCC(NC(=O)C(CCC(=O)O)NC(=O)c1cccnc1)C(=O)NCc1ccc(C(=O)NC(Cc2ccc3ccccc3c2)C(=O)NCCCCC(NC(=O)NC(CCC(=O)O)C(=O)O)C(=O)O)cc1 (stereo not shown) [Compound K12] | – | – | – | – |
| −3.2 +/− 0.16 | 80.6 +/− 11.6% | 6.73 | CC1(C)C(/C=C/C2=C(Oc3ccc(S(=O)(=O)O)cc3)C(=C/C=C3/N(CCCCS(=O)(=O)O)c4ccc(S(=O)(=O)O)cc4C3(C)C)/CCC2)=[N+](CCCCCC(=O)NCCC(=O)N2Cc3ccccc3-c3c(cnn3CCCCC(NC(=O)CN3CCN(CC(=O)O)CCN(CC(=O)O)CCN(CC(=O)O)CC3)C(=O)NCCCC[C@H](NC(=O)[C@H](CCC(=O)O)NC(=O)c3cccnc3)C(=O)NCc3ccc(C(=O)N[C@@H](Cc4ccc5ccccc5c4)C(=O)NCCCC[C@H](NC(=O)N[C@@H](CCC(=O)O)C(=O)O)C(=O)O)cc3)-c3ccccc32)c2ccc(S(=O)(=O)O)cc21 (stereo partly shown) [Compound K13] | – | – | – | – |
